Data: patent US7625911B2, “Amorphous form of erlotinib hydrochloride and its solid amorphous dispersion” (Mai De Ltd., priority 2005, dated 2009)

Assay: Solubility (complete dissolution) of erlotinib hydrochloride in alcohol solvents at elevated temperature
Format: physicochemical
From the text: In a first step of the distillation process, crystalline erlotinib hydrochloride is preferably dissolved in an […] solvent; more preferably dissolved in a straight or branched chain C1-C4 alcohol solvent, and most preferably dissolved in methanol or ethanol to form a solution. Erlotinib hydrochloride has the highest solubility in methanol or ethanol, allowing the complete dissolution of erlotinib hydrochloride at elevated temperature.
(§1) In particular, erlotinib hydrochloride is soluble in methanol at or over 50° C., allowing the complete dissolution of erlotinib hydrochloride in methanol at 50° C. or above with a concentration of 10 mg per milliliter (ml). The use of a relatively concentrated solution, e.g. about 10 mg per ml is therefore preferred for methanol.
as §1, with “ethanol” for “methanol”, “70°” for “50°”, “[…]” for “50° C. or above”, “ml.” for “milliliter (ml).”, “ethanol.” for “methanol.”
In particular, erlotinib hydrochloride is soluble in methanol, ethanol or a mixture of ethanol and water solvents at 45° C.-55° C., allowing the complete dissolution of erlotinib hydrochloride in methanol or ethanol at this elevated temperature with a concentration of about 10 mg per ml. The use of a relatively concentrated solution, e.g. about 10 mg per ml or over is therefore preferred for spraying drying process.

concentration at complete dissolution in ethanol (ethanol, soluble at or over 70° C. (sentence also says ambient temperature)): 10 mg per ml | concentration at complete dissolution in methanol (methanol, at 50° C. or above): 10 mg per milliliter (ml) | concentration at complete dissolution in methanol, ethanol or a mixture of ethanol and water (methanol, ethanol or ethanol/water mixture, 45° C.-55° C.): about 10 mg per ml
SMILES: C#Cc1cccc(Nc2ncnc3cc(OCCOC)c(OCCOC)cc23)c1.Cl [erlotinib hydrochloride, [6,7-bis(2-methoxy-ethoxy)-quinazolin-4-yl]-(3-ethynyl-phenyl) amine hydrochloride]
